Laboratory results taken from ChEMBL document CHEMBL5331072, “Development of potent and selective FAAH inhibitors with improved drug-like properties as potential tools to treat neuroinflammatory conditions” (Eur J Med Chem, 2023).
Converted amounts (≈) assume the structure as drawn. The source made the active and inactive calls. The rule behind the calls is not given here.

How the values were obtained:
[1] = biological target: T1, Fatty-acid amide hydrolase 1 (Homo sapiens, UniProt O00519); experiment: Inhibition of human recombinant FAAH using AMC-AA as substrate preincubated for 30 mins followed by substrate addition and measured after 30 mins by multimode plate reader analysis
T1 sequence (O00519 whole entry): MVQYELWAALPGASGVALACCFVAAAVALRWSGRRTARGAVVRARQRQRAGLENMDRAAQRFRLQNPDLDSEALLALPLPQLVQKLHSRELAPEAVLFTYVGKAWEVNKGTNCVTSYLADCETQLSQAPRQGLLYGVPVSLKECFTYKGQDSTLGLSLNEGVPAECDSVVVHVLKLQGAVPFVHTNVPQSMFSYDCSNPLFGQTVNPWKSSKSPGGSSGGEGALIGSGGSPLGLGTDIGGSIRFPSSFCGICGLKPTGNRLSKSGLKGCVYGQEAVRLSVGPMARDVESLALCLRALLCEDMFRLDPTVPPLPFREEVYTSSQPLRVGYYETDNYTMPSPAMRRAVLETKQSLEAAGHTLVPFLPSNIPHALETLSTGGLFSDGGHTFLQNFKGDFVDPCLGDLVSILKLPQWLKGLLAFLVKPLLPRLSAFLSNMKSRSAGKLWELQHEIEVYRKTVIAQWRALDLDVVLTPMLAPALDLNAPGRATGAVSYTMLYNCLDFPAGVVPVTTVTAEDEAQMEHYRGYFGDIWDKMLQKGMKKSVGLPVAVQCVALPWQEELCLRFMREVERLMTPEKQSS

Monoglyceride lipase = biological target: T2, Monoglyceride lipase (Homo sapiens, UniProt Q99685); experiment: Inhibition of human recombinant MAGL using 7-hydroxycoumarinyl arachidonate as substrate preincubated for 30 mins followed by substrate addition and measured after 30 mins by multimode plate reader analysis
T2 sequence (Q99685 whole entry): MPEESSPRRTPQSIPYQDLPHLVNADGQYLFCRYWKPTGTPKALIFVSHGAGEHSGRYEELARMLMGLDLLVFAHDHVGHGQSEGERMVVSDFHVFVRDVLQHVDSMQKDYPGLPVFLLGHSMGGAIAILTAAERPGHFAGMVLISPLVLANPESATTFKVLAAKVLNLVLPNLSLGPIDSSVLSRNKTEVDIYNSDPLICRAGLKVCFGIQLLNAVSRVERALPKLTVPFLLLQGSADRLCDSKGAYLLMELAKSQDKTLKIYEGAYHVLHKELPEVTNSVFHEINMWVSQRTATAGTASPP

[2] = Chemical stability of the compound at pH 3 measured for 24 hrs by HPLC analysis; type: physicochemical; conditions: buffer, read-out: Stability
[3] = Chemical stability of the compound at pH 7.4 measured for 24 hrs by HPLC analysis; type: physicochemical; conditions: buffer, read-out: Stability
[4] = Cytotoxicity against mouse NIH3T3 cells assessed as inhibition of cell growth measured for 24 hrs by neutral red uptake assay; type: toxicity, cell-based
[5] = Dissociation constant, pKa of the compound; type: physicochemical
[6] = biological target: T3, Fatty-acid amide hydrolase 1 (Homo sapiens) (UniProt O00519); experiment: Reversible inhibition of human recombinant FAAH at 10 to 100 nM using AMC-AA as substrate preincubated for 30 mins followed by substrate addition and measured after 30 mins by rapid dilution method; conditions: dose 10-100 nM, time 1.0 hrs
T3 sequence (whole entry): T1 sequence (O00519 whole entry)

[7] = Solubility of compound at pH 3 measured for 24 hrs; type: physicochemical; conditions: buffer
[8] = Solubility of compound at pH 7.4 measured for 24 hrs; type: physicochemical; conditions: buffer
[9] = Neurotoxicity against Wistar rat Hippocampus assessed as cell survival at 0.3 to 100 nM measured for 96 hrs by densitometric analysis; type: toxicity, tissue-based; conditions: 0.1 µM, dose 0.3-100 nM
Hippocampus [10] = experiment: Neuroprotective activity against Wistar rat Hippocampus assessed as reduction in LPS/IFN-gamma induced PI uptake in CA1 region at 0.3 to 100 nM measured for 96 hrs; type: functional; conditions: dose 0.3-100 nM
Hippocampus [11] = experiment: Neuroprotective activity against Wistar rat Hippocampus assessed as reduction in LPS/IFN-gamma induced PI uptake in CA1 region at 3 to 100 nM measured for 96 hrs; type: functional, tissue-based; conditions: dose 3-100 nM
[12] = Solubility of compound at pH 3 measured for 12 hrs; type: physicochemical; conditions: buffer
[13] = Solubility of compound at pH 7.4 measured for 12 hrs; type: physicochemical; conditions: buffer
1321N1 [14] = experiment: Cytotoxicity against human 1321N1 cells assessed as inhibition of cell growth at 10 nM measured for 24 hrs by MTT assay; type: functional; design: scale not given: the % may be the effect or the level left
1321N1 [15] = experiment: Cytotoxicity against human 1321N1 cells assessed as inhibition of cell growth at 100 nM measured for 24 hrs by MTT assay; type: functional; design: scale not given: the % may be the effect or the level left
1321N1 [16] = experiment: Cytotoxicity against human 1321N1 cells assessed as inhibition of cell growth at 1 uM measured for 24 hrs by MTT assay; type: functional; design: scale not given: the % may be the effect or the level left
1321N1 [17] = experiment: Cytotoxicity against human 1321N1 cells assessed as inhibition of cell growth at 10 uM measured for 24 hrs by MTT assay; type: functional; design: scale not given: the % may be the effect or the level left
1321N1 [18] = experiment: Cytotoxicity against human 1321N1 cells assessed as inhibition of cell growth at 30 uM measured for 24 hrs by MTT assay; type: functional; design: scale not given: the % may be the effect or the level left
1321N1 [19] = experiment: Antiinflammatory activity against human 1321N1 cells assessed as reduction in TBHP-induced ROS production at 10 nM incubated for 24 hrs by CellROX green reagent based flow cytometry assay; type: functional, cell-based
1321N1 [20] = experiment: Antiinflammatory activity against human 1321N1 cells assessed as reduction in TBHP-induced ROS production at 1 uM incubated for 24 hrs by CellROX green reagent based flow cytometry assay; type: functional, cell-based
Hippocampus [21] = experiment: Neuroprotective activity against Wistar rat Hippocampus assessed as reduction in LPS/IFN-gamma induced PI uptake in CA1 region at 0.1 to 10 uM measured for 96 hrs; type: functional, tissue-based; conditions: dose 0.1-10 µM
Hippocampus [22] = experiment: Neuroprotective activity against Wistar rat Hippocampus assessed as reduction in LPS/IFN-gamma induced PI uptake in CA1 region measured for 96 hrs; type: functional, tissue-based

NC(=O)c1cn(-c2cccc(OC(=O)NCCCCCCc3ccccc3)c2)nn1
IC50 [1]: 15.8 nM | IC50 (Monoglyceride lipase): 479 nM | remaining at 24 h [2]: 63% | remaining at 24 h [3]: 79% | IC50 at 24 h [4]: 35000 nM

Cc1cc(C(N)=O)c(-c2cccc(OC(=O)N3CCC(NCCc4ccccc4)CC3)c2)o1
IC50 [1]: 26.3 nM | IC50 (Monoglyceride lipase): > 10000 nM | pKa [5]: 7.6 | inhibition [6]: Active | remaining at 24 h [2]: > 99% | remaining at 24 h [3]: > 99% | solubility at 24 h [7]: 277 µM (≈ 124 µg/mL) | solubility at 24 h [8]: 206 µM (≈ 92.2 µg/mL) | IC50 at 24 h [4]: 45000 nM | Activity [9]: Non-Toxic | Activity (Hippocampus [10]): Active | Activity (Hippocampus [11]): Active

Cc1cc(C(N)=O)c(-c2cccc(OC(=O)N(C)C3CCN(CCc4ccccc4)CC3)c2)s1
IC50 [1]: 8450 nM | IC50 (Monoglyceride lipase): > 10000 nM

NC(=O)c1cccc(-c2cccc(OC(=O)NC3CCCCC3)c2)c1 [URB-597]
IC50 (Monoglyceride lipase): 9380 nM | inhibition [6]: inactive

Cc1cc(C(=O)O)c(-c2cccc(OC(=O)NCCCCCCc3ccccc3)c2)o1
IC50 [1]: 10.5 nM | IC50 (Monoglyceride lipase): 2440 nM | remaining at 24 h [2]: < 1% | remaining at 24 h [3]: 92.7% | solubility at 24 h [8]: 172 µM (≈ 72.5 µg/mL)

NC(=O)c1cn(-c2cccc(OC(=O)N3CCN(CCCc4ccccc4)CC3)c2)nn1
IC50 [1]: 47.4 nM | IC50 (Monoglyceride lipase): 2900 nM | remaining at 24 h [2]: > 99% | remaining at 24 h [3]: > 99% | solubility at 24 h [7]: 298 µM (≈ 129 µg/mL) | solubility at 24 h [8]: 38 µM (≈ 16.5 µg/mL)

Cc1cc(C(N)=O)c(-c2cccc(OC(=O)N3CCC(CCCc4ccccc4)CC3)c2)o1
IC50 [1]: 11.7 nM | IC50 (Monoglyceride lipase): 4120 nM

NC(=O)c1ccn(-c2cccc(OC(=O)NC3CCN(CCc4ccccc4)CC3)c2)c1
IC50 [1]: 315 nM | IC50 (Monoglyceride lipase): > 10000 nM

Cc1cc(C(N)=O)c(-c2cccc(OC(=O)NC3CCN(CCCc4ccccc4)CC3)c2)o1
IC50 [1]: 407 nM | IC50 (Monoglyceride lipase): > 10000 nM

Cc1cc(C(N)=O)c(-c2cccc(OC(=O)NCCCCCCc3ccccc3)c2)o1
remaining at 24 h [2]: 31% | remaining at 24 h [3]: 9% | solubility at 12 h [12]: < 1 µM | solubility at 12 h [13]: < 1 µM | IC50 at 24 h [4]: 19200 nM

NC(=O)c1ccn(-c2cccc(OC(=O)NCCCCCCc3ccccc3)c2)c1
IC50 [1]: 3.72 nM | remaining at 24 h [2]: 32% | remaining at 24 h [3]: 38% | solubility at 24 h [7]: 3 µM (≈ 1.22 µg/mL)

O=C(NCCCCCCc1ccccc1)Oc1cccc(-c2nn[nH]n2)c1
IC50 [1]: 7.54 nM | IC50 (Monoglyceride lipase): 8400 nM | remaining at 24 h [2]: < 1% | remaining at 24 h [3]: > 99% | solubility at 24 h [8]: 108 µM (≈ 39.5 µg/mL) | IC50 at 24 h [4]: 39000 nM | Activity (1321N1 [14]): 100.8% | Activity (1321N1 [15]): 98.5% | Activity (1321N1 [16]): 98.8% | Activity (1321N1 [17]): 99.8% | Activity (1321N1 [18]): 97% | Activity (1321N1 [19]): Active | Activity (1321N1 [20]): Active | Activity [9]: Non-Toxic | Activity (Hippocampus [21]): Active | Activity (Hippocampus [22]): Dose-Dependent Effect

Cc1cc(C(N)=O)c(-c2cccc(OC(=O)N3CCN(CCCc4ccccc4)CC3)c2)o1
IC50 [1]: 8.29 nM | IC50 (Monoglyceride lipase): 5060 nM | pKa [5]: 8.5 | inhibition [6]: Active | remaining at 24 h [2]: 98% | remaining at 24 h [3]: > 99% | solubility at 24 h [7]: 168 µM (≈ 75.2 µg/mL) | solubility at 24 h [8]: < 1 µM | IC50 at 24 h [4]: 6400 nM | Activity (1321N1 [14]): 99.3% | Activity (1321N1 [15]): 97% | Activity (1321N1 [16]): 100% | Activity (1321N1 [17]): 101% | Activity (1321N1 [18]): 96% | Activity (1321N1 [19]): Active | Activity (1321N1 [20]): Active | Activity [9]: Non-Toxic | Activity (Hippocampus [10]): 70% | EC50 (Hippocampus [22]): 2.91 nM

Cc1cc(C(N)=O)c(-c2cccc(OC(=O)NC3CCN(CCc4ccccc4)CC3)c2)s1
IC50 [1]: 194 nM | IC50 (Monoglyceride lipase): > 10000 nM

Cc1cc(C(=O)O)c(-c2cccc(OC(=O)N3CCN(CCCc4ccccc4)CC3)c2)o1
IC50 [1]: 128 nM | IC50 (Monoglyceride lipase): > 10000 nM | remaining at 24 h [2]: > 99% | remaining at 24 h [3]: 97% | solubility at 24 h [7]: 249 µM (≈ 112 µg/mL) | solubility at 24 h [8]: 259 µM (≈ 116 µg/mL)

CN(C(=O)Oc1cccc(-n2ccc(C(N)=O)c2)c1)C1CCN(CCc2ccccc2)CC1
IC50 [1]: > 10000 nM | IC50 (Monoglyceride lipase): > 10000 nM

O=C(Oc1cccc(-c2nn[nH]n2)c1)N1CCN(CCCc2ccccc2)CC1
IC50 [1]: 253 nM | IC50 (Monoglyceride lipase): > 10000 nM | remaining at 24 h [2]: > 99% | remaining at 24 h [3]: > 99% | solubility at 24 h [7]: 268 µM (≈ 105 µg/mL) | solubility at 24 h [8]: 272 µM (≈ 107 µg/mL)

Cc1cc(C(N)=O)c(-c2cccc(OC(=O)N3CCC(NCCCc4ccccc4)CC3)c2)o1
IC50 [1]: 165 nM | IC50 (Monoglyceride lipase): 9880 nM | remaining at 24 h [2]: > 99% | remaining at 24 h [3]: > 99% | solubility at 24 h [7]: 353 µM (≈ 163 µg/mL) | solubility at 24 h [8]: 322 µM (≈ 149 µg/mL)

Cc1cc(C(N)=O)c(-c2cccc(OC(=O)N3CCN(CCCc4ccccc4)CC3)c2)s1
IC50 [1]: 15.6 nM | IC50 (Monoglyceride lipase): > 10000 nM

Cc1cc(C(N)=O)c(-c2cccc(OC(=O)NC3CCN(CCc4ccccc4)CC3)c2)o1
IC50 [1]: 188 nM | IC50 (Monoglyceride lipase): > 10000 nM | remaining at 24 h [2]: 96% | remaining at 24 h [3]: > 99% | solubility at 24 h [7]: 282 µM (≈ 126 µg/mL) | solubility at 24 h [8]: 67 µM (≈ 30 µg/mL)

Cc1cc(C(N)=O)c(-c2cccc(OC(=O)N(C)C3CCN(CCc4ccccc4)CC3)c2)o1
IC50 [1]: 6560 nM | IC50 (Monoglyceride lipase): > 10000 nM

Cc1cc(C(N)=O)c(-c2cccc(OC(=O)NCCCCCCN3CCN(C)CC3)c2)o1
IC50 [1]: 1040 nM | IC50 (Monoglyceride lipase): > 10000 nM
